Experimental data reported in ChEMBL document CHEMBL2057066, “Heteroaromatic Moieties in the Sphingosine Backbone of α-Galactosylceramides for Noncovalent Interactions with CD1d” (ACS Med Chem Lett, 2012).
Activity calls are given as the source filed them. The calls are words filed in the database; no cut-off is given here.

Assays:
iNKT [1] = assay: Immunomodulatory activity in mouse hepatic mononuclear cells containing iNKT cells assessed as IL4 release after 72 hrs by ELISA; assay type: functional, cell-based
iNKT [2] = assay: Immunomodulatory activity in mouse hepatic mononuclear cells containing iNKT cells assessed as IFNgamma release after 72 hrs by ELISA; assay type: functional, cell-based
Mus musculus = assay: Immunomodulatory activity in C57BL/6 mouse serum assessed as IL4 release at 2 ug/ml, iv after 2 to 16 hrs by ELISa; assay type: functional, organism-based
iNKT [3] = assay: Immunomodulatory activity in mouse hepatic mononuclear cells containing iNKT cells assessed as IFNgamma release at 25 nM after 72 hrs by ELISA; assay type: functional, cell-based
iNKT [4] = assay: Immunomodulatory activity in mouse hepatic mononuclear cells containing iNKT cells assessed as IL4 release at 25 nM after 72 hrs by ELISA; assay type: functional, cell-based

SMILES	Activity (iNKT [1])	Activity (iNKT [2])	Activity (Mus musculus)	Activity (iNKT [3])	Activity (iNKT [4])
CCCCCCCCCCCCCCCCCCCCCCCCCC(=O)N[C@@H](CO[C@H]1O[C@H](CO)[C@H](O)[C@H](O)[C@H]1O)[C@H](O)[C@H](O)c1cnn(Cc2ccc(CCCCCC)cc2)c1	Dose-dependent effect	Dose-dependent effect	Active		
CCCCCCCCCCCCCCCCCCCCCCCCCC(=O)N[C@@H](CO[C@H]1O[C@H](CO)[C@H](O)[C@H](O)[C@H]1O)[C@H](O)[C@H](O)CCCCCCCCCCCCCC				Active	Active
